Where “and” joins values, the source holds several entries; their conditions need not be identical. Identical values can stand only once.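 48-hour exposure; five concentrations; linearly interpolated endpoints. GI50: concentration for 50% inhibition of growth. TGI denotes the concentration required for complete inhibition of growth.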
Tests used:
Assay in all cases: NCI tumour cell line growth inhibition, 48 h
MDA-N = system: MDA-N
DLD-1 colon = system: DLD-1 colon
DMS 273 small cell lung = system: DMS 273 small cell lung
M19-MEL melanoma = system: M19-MEL melanoma
P388 leukemia = system: P388 leukemia
P388/ADR leukemia = system: P388/ADR leukemia
SN12K1 renal = system: SN12K1 renal
SNB-78 CNS = system: SNB-78 CNS
LXFL 529 NSCLC = system: LXFL 529 NSCLC
RXF-631 renal = system: RXF-631 renal
XF 498 CNS = system: XF 498 CNS

| SMILES | TGI (MDA-N) [µM] | TGI (DLD-1 colon) | TGI (DMS 273 small cell lung) | TGI (M19-MEL melanoma) | TGI (SNB-78 CNS) | further results |
| --- | --- | --- | --- | --- | --- | --- |
| O=c1ccc2cc(O)c(O)cc2o1 | > 100 |  |  |  |  |  |
| NC(=O)NN=C(CS)CS |  | > 65.5 µM | 45.1 µM | 37.1 µM | > 100 µM | TGI (P388 leukemia): 47.4 µM; TGI (P388/ADR leukemia): > 100 µM; TGI (SN12K1 renal): 41.6 µM |
| N#CC(c1ccccc1)c1nc2ccc(=N)cc-2n(O)c1C(C#N)c1ccccc1 (stereo unspecified) |  | > 100 µM | > 100 µM | > 100 µM | > 100 µM | TGI (LXFL 529 NSCLC): > 100 µM; TGI (RXF-631 renal): > 100 µM; TGI (XF 498 CNS): > 100 µM |
| CC(=O)C(O)N1C(=O)C=CC1=O (stereo unspecified) | 25 | 23.6 µM and 3.97 µM | 32.2 µM and 28.1 µM | 30.4 µM and 17.6 µM | 37 µM and 54.9 µM | GI50 (DLD-1 colon): 9.71 µM; GI50 (DMS 273 small cell lung): 18 µM; GI50 (LXFL 529 NSCLC): 15.3 µM; TGI (LXFL 529 NSCLC): 28.6 µM and 3.32 µM; GI50 (M19-MEL melanoma): 16.4 µM; TGI (RXF-631 renal): 33.9 µM; GI50 (SNB-78 CNS): 19.9 µM; TGI (XF 498 CNS): 31.5 µM |
| COc1ccc(N2C(=O)C3c4[nH]c5c(C)cccc5c4C4CCC(C(C)(C)C)CC4C3C2=O)cc1 (stereo unspecified) | > 10 |  |  |  |  |  |
| NC(=O)CCCC(NCc1c2ccccc2nc2ccccc12)C(=O)O (stereo unspecified) |  | > 100 µM | 86.7 µM | > 100 µM |  | TGI (LXFL 529 NSCLC): > 100 µM; TGI (XF 498 CNS): 61.8 µM |
| CN(C)CCCNc1ccc2ncn3c4ccccc4c(=O)c1c23 |  | 39.6 µM |  | 30.6 µM | 78.7 µM | TGI (LXFL 529 NSCLC): > 100 µM; TGI (RXF-631 renal): 26.3 µM |
| CN1CCCCC1CCN1CCCCC1 (stereo unspecified) | > 100 |  |  |  |  |  |
| CC12CCC(C(=O)OC1=O)C(C)(C)O2 (stereo unspecified) | > 100 |  |  |  |  |  |
| CC1C(O)C2(Oc3cc4c(c5c3[C@@H](CC5O)[C@H]2C)CCC2Cc3nc5c(nc3C[C@@]42C)CC2CCC3C4=C[C@H]6O[C@@]7(O[C@@](C)(CO)C[C@@H]7O)C(C)[C@@]6(O)[C@]4(C)[C@@H](O)CC3[C@]2(C)C5)OC1(C)C (stereo partly specified) |  | > 3.67 µM | 0.114 µM | > 3.67 µM | 0.584 µM | TGI (P388 leukemia): 0.435 µM; TGI (P388/ADR leukemia): 1.84 µM; TGI (SN12K1 renal): 0.194 µM; TGI (XF 498 CNS): 0.343 µM |
| Cc1c2cc[n+](CCN3CCCCC3)cc2c(C)c2c1[nH]c1ccc(O)cc12 | 51 | 49.6 µM | 17.1 µM | 4.93 µM | 64.1 µM | TGI (P388/ADR leukemia): 31.8 µM; TGI (SN12K1 renal): 20.3 µM |
| C/C=C/[P+](c1ccccc1)(c1ccccc1)c1ccccc1 | 10.6 |  |  |  |  |  |
| COc1ccc(-c2c3c(nc4nc(SCCc5ccccc5)nc(N)c24)CCCC3)cc1OC | > 100 |  |  |  |  |  |
| Cc1ccc(S(=O)(=O)NCCSCCNS(=O)(=O)c2ccc(C)cc2)cc1 | > 100 |  |  |  |  |  |
| CN(C)CCNc1nc(-c2ccc3ccccc3c2)nc2nc[nH]c12 | 23.2 |  |  |  |  |  |
| COc1ccc([C@@H]2ON(C)[C@H]3CN(C)C(=O)[C@@H]23)cc1 | > 100 |  |  |  |  |  |

From PubChem BioAssay (NCI)
